Source: patent US20140072999A1, “METHODS OF SIMULATING CHEMOTHERAPY FOR A PATIENT” (Precision Therapeutics, Inc., priority 2008, published 2014)

How the values were obtained:
[1] = tested on: tumor cells cultured from primary ovarian cancer specimens; test: in vitro chemoresponse assay (ChemoFx), AUC7 drug response score; assay type: cell-based, human; settings: for share of tumors exhibiting in vitro resistance: AUC7 score >75th rank, patients of the observational study; for AUC (first seven doses) of the 25% of historical dose response curves with the highest scores (resistant cut-off) / AUC (first 7 doses) of the 25% of historical dose response curves with the lowest scores (sensitive cut-off): sum of survival fractions over doses 1-7, more than 2,000 specimens; for AUC (first 7 doses) of the 25% of historical dose response curves with the lowest scores (sensitive cut-off): smaller score = more sensitive
Procedure: Briefly, in certain embodiments, cohesive multicellular particulates (explants) are prepared from a patient's tissue sample (e.g., a biopsy sample or surgical specimen) using mechanical fragmentation. This mechanical fragmentation of the explant may take place in a medium substantially free of enzymes that are capable of digesting the explant. Some enzymatic digestion may take place in certain embodiments. Generally, the tissue sample is systematically minced using two sterile scalpels in a scissor-like motion, or mechanically equivalent manual or automated opposing incisor blades. This cross-cutting motion creates smooth cut edges on the resulting tissue multicellular particulates. The tumor particulates each measure from about 0.25 to about 1.5 mm^3, for example, about 1 mm^3.
After the tissue sample has been minced, the particles are plated in culture flasks. The number of explants plated per flask may vary, for example, between one and 25, such as from 5 to 20 explants per flask. For example, about 9 explants may be plated per T-25 flask, and 20 particulates may be plated per T-75 flask. For purposes of illustration, the explants may be evenly distributed across the bottom surface of the flask, followed by initial inversion for about 10-15 minutes. The flask may then be placed in a non-inverted position in a 37° C. CO2 incubator for about […], Flasks are checked regularly for growth and contamination. Over a period of a few weeks a cell monolayer will form. Further, it is believed (without any intention of being bound by the theory) that tumor cells grow out from the multicellular explant prior to stromal cells. Thus, by initially maintaining the tissue cells within the explant and removing the explant at a predetermined time (e.g., at about 10 to about 50 percent confluency, or at about 15 to about 25 percent confluency), growth of the tumor cells (as opposed to stromal cells) into a monolayer is facilitated. In certain embodiments, the tumor explant may be agitated to substantially release tumor cells from the tumor explant, and the released cells cultured to produce a cell culture monolayer. The use of this procedure to form a cell culture monolayer helps maximize the growth of representative tumor cells from the tissue sample.
A panel of active agents may then be screened using the cultured cells. Generally, the agents are tested against the cultured cells using plates such as microtiter plates. For the chemosensitivity assay, a reproducible number of cells is delivered to a plurality of wells on one or more plates, preferably with an even distribution of cells throughout the wells. For example, cell suspensions are generally formed from the monolayer cells before substantial phenotypic drift of the tumor cell population occurs. The cell suspensions may be, without limitation, about 4,000 to 12,000 cells/ml, or may be about 4,000 to 9,000 cells/ml, or about 7,000 to 9,000 cells/ml. The individual wells for chemoresponse testing are inoculated with the cell suspension, with each well or “segregated site” containing about 10^2 to 10^4 cells. The cells are generally cultured in the segregated sites for about 4 to about 30 hours prior to contact with an agent.
The efficacy of each agent in the panel is determined against the patient's cultured cells, by determining the viability of the cells (e.g., number of viable cells). For example, at predetermined intervals before, simultaneously with, or beginning immediately after, contact with each agent or combination, an automated cell imaging system may take images of the cells using one or more of visible light, UV light and fluorescent light. Alternatively, the cells may be imaged after about 25 to about 200 hours of contact with each treatment. The cells may be imaged once or multiple times, prior to or during contact with each treatment. Of course, any method for determining the viability of the cells may be used to assess the efficacy of each treatment in vitro. […]

[2] = tested on: FIGO stage III-IV ovarian, fallopian and peritoneal cancer; test: observational study: progression-free survival by in vitro response, patients treated with carboplatin + paclitaxel after cytoreductive surgery; assay type: in vivo, human; settings: patients treated with C+P; for hazard ratio of disease progression, in vitro resistant vs S+I: univariate
Source text: Women with FIGO stage III-IV ovarian, fallopian and peritoneal cancer were enrolled in an observational study and received in vitro chemoresponse testing between 2006 and 2010. Two hundred seventy-six (276) patients treated with carboplatin (C)+paclitaxel (P) following cytoreductive surgery were included in this analysis. Tumor response to C or P was classified into one of three categories according to assay response score: sensitive (S), intermediately sensitive (I), and resistant (R). Patient clinical information and progression-free survival (PFS) were retrospectively collected. Association of assay drug response with […] was analyzed using Kaplan-Meier procedure and Cox regression model.

[3] = grouped by in vitro response to the named drug

| Compound | share of tumors exhibiting in vitro resistance [1] [%] | AUC (first seven doses) of the 25% of historical dose response curves with the highest scores (resistant cut-off) [1] | AUC (first 7 doses) of the 25% of historical dose response curves with the lowest scores (sensitive cut-off) [1] | hazard ratio of disease progression, in vitro resistant vs S+I [2] | hazard ratio of disease progression, in vitro resistant vs S+I, multivariate analysis ([2]; controlled for clinical covariates) | median PFS, tumors intermediately sensitive (I) in vitro [2, 3] [months] | median PFS, tumors resistant (R) in vitro [2, 3] [months] | median PFS, tumors sensitive (S) in vitro [2, 3] [months] |
| --- | --- | --- | --- | --- | --- | --- | --- | --- |
| CC(=O)O[C@H]1C(=O)[C@@]2(C)[C@H]([C@H](OC(=O)c3ccccc3)[C@]3(O)C[C@H](OC(=O)[C@H](O)[C@@H](NC(=O)c4ccccc4)c4ccccc4)C(C)=C1C3(C)C)[C@]1(OC(C)=O)CO[C@@H]1C[C@@H]2O [paclitaxel, Paclitaxel] | 22 | ≥ 6.0 | ≤ 5.0 | 1.43 |  |  |  |  |
| N.N.O=C([O-])C1(C(=O)[O-])CCC1.[Pt+2] [carboplatin, Carboplatin] | 19 | ≥ 5.5 | ≤ 4.3 | 1.87 | 1.71 | 16.6 | 11.8 | 17.4 |
